Measurements as given in patent US7989165B2, “Tape stripping methods for analysis of skin disease and pathological skin state” (DermTech International, priority 2004, dated 2011).
Several values for one entry are separate records, joined by “and”; a condition that tells them apart may be missing. Equal values may be shown once. Marks after values point to notes of the source that are not given here.

System: IL-8 mRNA
Experiment: Semi-quantitative RT-PCR of IL-8 mRNA relative to β-actin in SLS-occluded skin (tape and biopsy)
Format: in vivo, human
Text: Clinical protocols: The study protocols were reviewed and approved by an independent IRB (BioMed IRB, San Diego) and all subjects signed informed consent. Ten healthy women, ages 21-55 were enrolled in the study. Regions of unblemished, normal appearing skin on the mid back were chosen for the application of 2 occlusive patches in the form of bandages approximately 4 cm×6.5 cm. The bandages were made using a clear, non-porous plastic hypoallergenic adhesive tape. In the center of this tape was a Webril (non-woven cotton) patch measuring approximately 2 cm×4.5 cm. One Webril patch contained 0.6 ml of 1% aqueous sodium lauryl sulfate and the other contained 0.6 ml of sterile water as the vehicle control. […] At 24 hours post application, the SLS and water patches were removed and the skin allowed to air dry for 15 minutes before scoring. The sites were scored by a trained technician using the scale provided below. Patched sites were large enough that two areas could be tape harvested without overlap and room left for a shave biopsy (˜2×2 mm). Skin sites were tape stripped with 4 tapes each and then a shave biopsy taken under local anesthetic (lidocaine HCl 1% and epinephrine 1:100,000; Abbott Laboratories). The tapes were applied to the skin using 20 seconds of firm pressure with a circular motion The tape used for tape stripping was a synthetic rubber-based adhesive on a polyurethane film (Product No. 90068, Adhesive Research, Glen Rock, Pa.). An area of uninvolved skin was tape harvested and shave biopsied in an identical manner. Tapes were stored in individual eppendorf tubes at −80 until extraction; biopsy samples were placed in buffer RLT and stored at −80 until extraction. Skin responses to each patch application were examined and graded under light supplied by a 100-watt incandescent blue bulb. The following grading scale was used: 0, no visible reaction; 1, slight, pink, patchy erythema; 2, mild confluent, pink erythema; 3, moderate erythema (definite redness) with edema; 4, strong erythema (very intense redness) with edema. In a second study, 3 subjects had 3 patches containing 1% SLS and 3 water patches applied to the mid back for 24 hours: Patches were removed, scored and tape stripped as above. In a third study, two individuals were tape stripped on uninvolved skin on the upper back at three adjacent sites as above. RNA harvested in these last two studies was used in the DNA microarray experiments described below.
Isolation of RNA: The RNA within skin cells adherent to the 4 tapes used to harvest a site was pooled by simultaneously extracting the tapes in a volume of buffer RLT (supplied with RNeasy kit). Extraction was performed using the manufacturer's directions and included a Proteinase K digestion, sonication of tapes and “on-column” DNase I digestion. RNA was eluted in 100 microliters of sterile, RNase free water. Extraction of biopsies was performed with the same kit according to the manufacturer's instructions.
Quantitative RT-PCR: 10 μl of RNA was reverse transcribed (RT) into cDNA with the Sensiscript Reverse Transcriptase kit and random hexamers in a final volume of […] according to the manufacturer's directions. The reaction was diluted 5-fold with sterile, nuclease-free water (Ambion) for use in the subsequent amplification/detection reaction. For each specific mRNA detection, 3 replicate RT^+ reactions and one RT^− (no reverse transcriptase; negative control) reaction were performed. Two amplification/detection reactions were done on each RT^+ reaction to yield a total of 6 independent determinations of the threshold value (Ct; discussed below).
Amplification and detection of specific mRNA: Specific mRNAs were converted to cDNA as described above. Specific cDNAs were semi-quantified using gene specific primer/probes (5′-nuclease assay) and fluorescence detection.

[1] = SLS-occluded skin vs uninvolved skin

CCCCCCCCCCCCOS(=O)(=O)[O-].[Na+] [SLS, sodium lauryl sulfate]
fold-change in IL-8/β-actin mRNA ratio, Biopsy (SLS-occluded skin relative to uninvolved skin, biopsy samples, per subject, > = minimum estimate, sulfate): >171**^† fold and >12**^† fold and >101**^† fold and >778**^† fold and >42**^† fold and >594**^† fold and >368**^† fold and >1.1 fold (2×) and 84**^† fold | fold-change in IL-8/β-actin mRNA ratio, Tape (SLS-occluded skin relative to uninvolved skin, tape samples, per subject, > = minimum estimate, sulfate): 24**^† fold and >9.3**^† fold and >6.8** fold and >235**^† fold and >41**^† fold and 18** fold and >3** fold and 6**^† fold | biopsy samples with significant increases in IL-8/actin mRNA ratio [1]: 8 of 10 | tape-harvested samples with significantly increased IL-8/β-actin mRNA ratio [1]: 8 of 10 | ΔCt,IL-8, Biopsy (SLS-occluded skin, biopsy RNA, per subject and average, sulfate): 4.13 and 6.56 ± 0.10 and 3.06 ± 0.11 and 0.76 ± 0.13 and 5.11 ± 0.06 and 1.67 ± 0.08 and 1.06 ± 0.07 and 9.81 ± 0.26 and 9.15 ± 0.15 and 1.82 ± 0.05 and 2.29 ± 0.13 | ΔCt,IL-8, Tape (SLS-occluded skin, tape-harvested RNA, per subject and average, > = minimum ΔCt (Ct assigned 37), sulfate): −1.28 and −0.89 and −1.28 ± 0.11 and −3.05 ± 0.15 and −0.05 ± 0.11 and −0.68 ± 0.08 and −0.44 ± 0.06 and 0.02 ± 0.17 and 0.56 ± 0.07 and >1.51 ± 0.17 and −0.36 ± 0.05 and −2.59 ± 0.07 | IL-8/actin mRNA ratio of subject 4's SLS site vs average for water-occluded samples (tape-harvested, from ΔCt −1.28 and average ΔCt 1.54): 7.1 fold | IL-8/β-actin mRNA ratio of subject 4's SLS site vs average value for uninvolved skin (tape-harvested, from ΔCt −1.28 and average ΔCt >2.49): ≥ 13.6 fold
